PubChem BioAssay AID2060903 (Molecular Pharmacology Branch, DTP, NCI, 2025)

System: 377384-186-R-J1-PDC complex spheroid viability
Test: Anticancer human tumor 377384-186-R-J1-PDC patient-derived pancreatic carcinoma cell line growth inhibition [RAS]
Conditions: for IC50: curve of first compound; for viability, T/C: stronger effect = lower value
Description: RAS pathway inhibitors in Combinations in Complex Spheroids
A high-throughput screen of multi-cell type tumor spheroids was designed to identify active combinations of RAS pathway inhibitors and targeted small molecules. Complex spheroids include a stromal component modeled by human endothelial cells (HUVEC) and fibroblasts modeled by human mesenchymal stem cells (MSCs). The concentration ranges selected for each drug and investigational agent were based upon clinically achievable concentrations if the clinical Cmax of the agent was known.
Compounds. The drugs and investigational agents: abemaciclib (NSC768073), cobimetinib (NSC768068), divarasib (GDC6063, NSC841802), docetaxel (NSC628503), GDC-1971 (RLY-1971, NSC841576), gemcitabine (NSC613327), inavolisib (NSC800729), ipatasertib (NSC767898), KB-0742 (NSC834161), MRTX-1133 (NSC836407), osimertinib (NSC779217), RMC-4630 (NSC839698), RMC-6236 (NSC851965), RMC-6291 (NSC852671), Ro-3306 (NSC812927), sapanisertib (NSC764658), SN-38 (NSC673596), staurosporine (NSC755774), SY5609 (NSC837396), and tovorafenib (DAY101, NSC766906), were obtained from the National Cancer Institute (NCI) Developmental Therapeutics Program Chemical Repository. The FDA-approved anticancer drug set is available from the NCI Developmental Therapeutics Program. […] The stock solutions were prepared in dimethyl sulfoxide (DMSO, Sigma-Aldrich, St. Louis, MO, cat. D2650) at 800-fold the tested concentration and stored at -70 degrees C prior to their use. All drugs and investigational agents were tested over a range starting from a high concentration at or near the clinical Cmax and decreasing in half-log increments. If the clinical Cmax for an agent had not been determined, the highest concentration tested was 10 microM.
Cell Culture. All cells were maintained in an incubator at 37 degrees C and 5% CO2 with 95% humidity. The PDC lines were cultured according to standard operating procedures established by the NCI PDMR. All PDCs were thawed and cultured in Matrigel-coated flasks prepared with a working solution of 1X Ham's F-12 nutrient mix, without supplementation (Invitrogen, Waltham, MA, cat. 11765054), 100 U/mL penicillin-streptomycin (Invitrogen, cat. 15140122), and 2.5% Matrigel (Corning Inc., Corning, NY, cat. 354248) for the first three passages. The 362531-283-R-J2-PDC and 782815-120-R-J1-PDC lines were cultured in 6C/Colon 1B media, which includes advanced DMEM/F-12 (Thermo Fisher Scientific, cat. 12634028), 10 mM HEPES (Thermo Fisher Scientific, cat. 15630080), 1X GlutaMAX supplement (Thermo Fisher Scientific, cat. 35050061), 0.1 mg/mL primocin (InvivoGen, San Diego, CA, cat. ant-pm-2), 10% defined fetal bovine serum, heat inactivated (HyClone Laboratories Inc., Logan, UT, cat. SH30070.03HI), 50% L-WRN conditioned media (ATCC, cat. CRL-3276), 1.25 mM N-Acetyl-L-cysteine (Sigma-Aldrich, cat. A9165), 10 mM nicotinamide (Sigma-Aldrich, cat. N0636), 1X B-27 supplement (Thermo Fisher Scientific, cat. 17504044), 1X N-2 supplement (Thermo Fisher Scientific, cat. 17502048), 50 ng/mL human EGF (Thermo Fisher Scientific, cat. PHG0311), and 10 microM Y-27632 dihydrochloride (Tocris Bioscience, cat. 1254). The K12877-001-R-J1-PDC line was cultured in 6I media, which includes all 6C/Colon 1B media plus 10 ng/mL human FGF-10 (PeproTech, cat. 100-26), 1 ng/mL human FGF-2 (PeproTech, cat. 100-18B), 1 µM prostaglandin E2 (Tocris Bioscience, cat. 2296), […] hydrocortisone (Sigma-Aldrich, cat. H4001), and […] bovine insulin (Sigma-Aldrich, cat. I6634). The K86415-001-R-J1-PDC line was cultured in 6D media, which includes all 6C/Colon 1B media components minus the L-WRN conditioned media. The 485176-168-R4-J1-PDC was cultured in PANC media, which includes all 6C/Colon 1B media plus 100 ng/mL human FGF-10 (PeproTech, cat. 100-26), 500 nM SB-431542 (Selleckchem, cat. S1067), and 10 nM gastrin (Tocris Bioscience, cat. 3006). […]
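Further: spheroids exposed to compounds for seven days before readout.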

Q: Which IC50 (second compound 0.00316 µM) does the source give for `C=CC(=O)Nc1cc(Nc2nccc(-c3cn(C)c4ccccc34)n2)c(OC)cc1N(C)CCN(C)C` + C=CC(=O)N1CCN(c2nc(OCC3CCCN3C)nc3c(F)c(-c4nc(N)cc(C)c4C(F)(F)F)c(Cl)cc23)C(C)C1 here?
A: The IC50 was 659 nM.

Q: And the IC50 (second compound 0.01 µM)?
A: Its IC50 is 602 nM.

Q: And the IC50 (second compound 0.0316 µM)?
A: Its IC50 is 851 nM.

Q: And the IC50 (second compound 0.1 µM)?
A: Its IC50 is 821 nM.

Q: What about the IC50 (second compound 0.316 µM) of the same compound?
A: Its IC50 is 905 nM.

Q: And the IC50 (second compound 1 µM)?
A: The IC50 was 800 nM.

Q: And the viability, T/C (second compound 0.00316 µM, first compound 0.00316 µM)?
A: The viability, T/C was 99.4%.

Q: And the viability, T/C (second compound 0.00316 µM, first compound 0.01 µM)?
A: The viability, T/C was 90.1%.

Q: And the viability, T/C (second compound 0.00316 µM, first compound 0.0316 µM)?
A: Its viability, T/C is 98.1%.

Q: And the viability, T/C (second compound 0.00316 µM, first compound 0.1 µM)?
A: Its viability, T/C is 81.3%.

Q: What about the viability, T/C (second compound 0.00316 µM, first compound 0.316 µM) of the same compound?
A: The viability, T/C was 61%.

Q: And the viability, T/C (second compound 0.00316 µM, first compound 1 µM)?
A: The viability, T/C was 43.9%.

Q: What about the viability, T/C (second compound 0.01 µM, first compound 0.00316 µM) of the same compound?
A: Its viability, T/C is 87.6%.

Q: And the viability, T/C (second compound 0.01 µM, first compound 0.01 µM)?
A: The viability, T/C was 86.8%.

Q: What about the viability, T/C (second compound 0.01 µM, first compound 0.0316 µM) of the same compound?
A: The viability, T/C was 87.8%.

Q: And the viability, T/C (second compound 0.01 µM, first compound 0.1 µM)?
A: The viability, T/C was 81.2%.

Q: What about the viability, T/C (second compound 0.01 µM, first compound 0.316 µM) of the same compound?
A: The viability, T/C was 59.9%.

Q: And the viability, T/C (second compound 0.01 µM, first compound 1 µM)?
A: The viability, T/C was 42.2%.

Q: What about the viability, T/C (second compound 0.0316 µM, first compound 0.00316 µM) of the same compound?
A: Its viability, T/C is 96.7%.

Q: And the viability, T/C (second compound 0.0316 µM, first compound 0.01 µM)?
A: The viability, T/C was 81.5%.

Q: And the viability, T/C (second compound 0.0316 µM, first compound 0.0316 µM)?
A: Its viability, T/C is 90.7%.

Q: And the viability, T/C (second compound 0.0316 µM, first compound 0.1 µM)?
A: The viability, T/C was 79.1%.

Q: And the viability, T/C (second compound 0.0316 µM, first compound 0.316 µM)?
A: The viability, T/C was 64.6%.

Q: What about the viability, T/C (second compound 0.0316 µM, first compound 1 µM) of the same compound?
A: The viability, T/C was 47.5%.

Q: What about the viability, T/C (second compound 0.1 µM, first compound 0.00316 µM) of the same compound?
A: The viability, T/C was 96.4%.

Q: What about the viability, T/C (second compound 0.1 µM, first compound 0.01 µM) of the same compound?
A: Its viability, T/C is 88.8%.

Q: What about the viability, T/C (second compound 0.1 µM, first compound 0.0316 µM) of the same compound?
A: Its viability, T/C is 102%.

Q: And the viability, T/C (second compound 0.1 µM, first compound 0.1 µM)?
A: The viability, T/C was 77.3%.

Q: And the viability, T/C (second compound 0.1 µM, first compound 0.316 µM)?
A: The viability, T/C was 70%.

Q: What about the viability, T/C (second compound 0.1 µM, first compound 1 µM) of the same compound?
A: The viability, T/C was 46%.

Q: And the viability, T/C (second compound 0.316 µM, first compound 0.00316 µM)?
A: The viability, T/C was 92.1%.

Q: And the viability, T/C (second compound 0.316 µM, first compound 0.01 µM)?
A: The viability, T/C was 98.3%.

Q: What about the viability, T/C (second compound 0.316 µM, first compound 0.0316 µM) of the same compound?
A: The viability, T/C was 83.8%.

Q: And the viability, T/C (second compound 0.316 µM, first compound 0.1 µM)?
A: The viability, T/C was 77.9%.

Q: What about the viability, T/C (second compound 0.316 µM, first compound 0.316 µM) of the same compound?
A: Its viability, T/C is 64.8%.

Q: What about the viability, T/C (second compound 0.316 µM, first compound 1 µM) of the same compound?
A: The viability, T/C was 48.4%.

Q: What about the viability, T/C (second compound 1 µM, first compound 0.00316 µM) of the same compound?
A: Its viability, T/C is 93.2%.

Q: What about the viability, T/C (second compound 1 µM, first compound 0.01 µM) of the same compound?
A: The viability, T/C was 84.1%.

Q: And the viability, T/C (second compound 1 µM, first compound 0.0316 µM)?
A: Its viability, T/C is 85.2%.

Q: What about the viability, T/C (second compound 1 µM, first compound 0.1 µM) of the same compound?
A: Its viability, T/C is 83.9%.

Q: What about the viability, T/C (second compound 1 µM, first compound 0.316 µM) of the same compound?
A: Its viability, T/C is 65.6%.

Q: And the viability, T/C (second compound 1 µM, first compound 1 µM)?
A: The viability, T/C was 46.2%.
